{
  "source": "patent US20250320562A1",
  "about": "“ALTERNATIVELY SPLICED ISOFORM IN CANCER AND METHODS OF USE THEREOF” (THE CHILDREN'S HOSPITAL OF PHILADELPHIA, priority 2022, published 2025)",
  "key": {"[1]": {"system": "reconstituted NT5C2low B-ALL cells", "test": "Resistance to 6-MP in reconstituted NT5C2low B-ALL cells expressing NT5C2 isoforms", "format": "cell-based", "source_text": "FIGS. 8A-8C: Possible effects of phosphorylation of the NT5C2 activity. (FIG. 8A) Predicted serine and threonine phosphorylation sites in the NT5C2 amino acid sequence. […] (SEQ ID NOS: 5-24) (FIG. 8B) Top ten kinases predicted to phosphorylate the NT5C2 exon NT5ex4a-encoded peptide. (FIG. 8C) Increased pro-survival activity of NT5C2 E4a isoform where the Ser-121 has been replaced by a phosphomimetic aspartic acid (S121D). Compare curves with rectangles and triangles.\n(§1) Consistent with this biochemical finding, in reconstituted NT5C2low B-ALL cells NT5ex4a conferred the same level of resistance to 6-MP as the variant with the R238W hotspot mutation (2-log difference in IC50). […] Therefore, inclusion of NT5C2 exon 4a phenocopies relapse-specific mutations and could serve as both a valuable predictive biomarker in B-ALL and potentially chronic myelogenous (CML) and acute myeloid leukemia (AML).\nTo determine the mechanism underlying the pro-survival activity of the NT5C2 E4a isoform, it was considered that it might be phosphorylated. Indeed, the application of predictive algorithms identified serine at position 121 as the residue in exon NT5ex4a most likely to be phosphorylated (FIG. 8A). Based on the amino acid context, it most strongly resembles consensus sites for kinases of the AGC, CAMK, and PIKK families. The latter includes such important cancer-related kinases as ATR and ATM (FIG. 8B). […]"}, "MHHCALL4 cell line": {"system": "MHHCALL4 cell line", "test": "6-MP dose-response in CRISPR/Cas9 NT5C2-KO and NT5ex4a (E4a) KO models, MHHCALL4", "format": "cell-based", "source_text": "(§2) FIG. 4: NT5C2 KO in MHHCALL4. (Top left panel) CRISPR/CAS9 strategy for the generation of total NT5C2 or NT5ex4a isoform specific KOs, representing the exons that will be targeted for each model. (Top right panel) Western-Blot of the NT5C2 levels on the parental, NT5C2-KO and NT5ex4a (E4a) KO models in the 697 and MHHCALL4 cell lines.\nas §1"}, "697 cell line": {"system": "697 cell line", "test": "6-MP dose-response in CRISPR/Cas9 NT5C2-KO model, 697", "format": "cell-based", "source_text": "as §2"}, "[2]": {"system": "REH cells over-expressing the WT, E4a or R238W NT5C2 isoforms", "test": "6-MP chemoresistance in vivo in xenografted B-ALL cells expressing NT5C2 isoforms", "set-up": "species or system mice", "details": "xenografted B-ALL cells expressing NT5ex4a", "source_text": "FIG. 5: NT5C2 E4a alternative isoform in 6-MP resistance. (Left panel) Bioluminescent mouse image of mice engrafted with REH cells over-expressing the WT, E4a or R238W NT5C2 isoforms at different time points. (Right panel) Flux quantification of mice engrafted with REH cells over-expressing the WT, E4a or R238W NT5C2 isoforms at different time points.\nas §1"}, "[3]": {"system": "B-ALL cells expressing NT5ex4a", "test": "In vitro sensitivity to mizoribine of cells expressing the non-canonical NT5C2 isoform", "format": "cell-based", "details": "expression of the non-canonical isoform NT5ex4a", "source_text": "FIG. 6: Mizoribine specifically blocks the […], adding extra pressure in NT5C2 hyperactive cells (Dieck et al., Blood, 2019). (Left panel) Mechanism of action of 6-MP and 6-TG purine analogs. (Right panel) Effects of NT5C2 activating-mutations on purine bases synthesis and degradation.\nas §1"}},
  "data": [
    {"smiles": "S=c1nc[nH]c2nc[nH]c12", "note": "[6-MP, mercaptopurine]", "values": [
      {"measurement": "survival in the presence of 6-MP", "setting": "[1]; E4a isoform with Ser-121 replaced by aspartic acid (S121D) versus parental E4a or the alanine derivative", "result": "stronger survival advantages"},
      {"measurement": "difference in IC50 (resistance to 6-MP)", "setting": "[1]; NT5ex4a, same level of resistance as the R238W hotspot mutation variant, compared to the canonical isoform", "result": 2, "unit": "log"},
      {"measurement": "cell survival in the presence of 6-MP", "setting": "MHHCALL4 cell line; CRISPR/Cas9 engineered NT5ex4a KO cells", "result": "reduced cell survival"},
      {"measurement": "sensitivity to 6-MP treatment (dose-response plots)", "setting": "MHHCALL4 cell line; E4a-KO, E4a-high expression MHHCALL4", "result": "increased sensitivity"},
      {"measurement": "sensitivity to 6-MP treatment (dose-response plots)", "setting": "MHHCALL4 cell line; NT5C2-KO, MHHCALL4", "result": "increased sensitivity"},
      {"measurement": "sensitivity to 6-MP treatment (dose-response plots)", "setting": "697 cell line", "result": "increased sensitivity"},
      {"measurement": "chemoresistance in vivo", "setting": "[2]", "result": "chemoresistance in vivo was further confirmed"}
    ]},
    {"smiles": "NC(=O)c1ncn([C@@H]2O[C@H](CO)[C@@H](O)[C@H]2O)c1O", "note": "[mizoribine, 4-carbamoyl-1-β-d-ribofuranosyl imirdozolium]", "values": [
      {"measurement": "sensitivity to mizoribine", "setting": "[3]", "result": "collateral sensitivity"}
    ]}
  ]
}
